These results are taken from patent publication US8975086B2, “Method for treating or preventing bladder cancer using the DEPDC1 polypeptide” (OncoTherapy Science, Inc., priority 2008, dated 2015).

One test concerns UM-UC-3 cells. As to the kind of experiment: MTT assay of cell viability of UM-UC-3 bladder cancer cells treated with 11R peptides. The test is classed as cell-based, human. Here is the method:
UM-UC-3 and normal human dermal fibroblast-derived NHDF-Ad cell lines were incubated with the 11R peptides at the concentration of 0, 1, 2, or 3 micromol/L for 5 days. Each peptide was added at every 24 hours at the appropriate concentrations and the viability of cells was evaluated by MTT assay at every day after the treatment.
To examine the effect of DEPDC1611-628 peptide on cell growth of UM-UC-3 and NHDF cells, the cells were incubated with the DEPDC1611-628 or scramble peptides at the concentration of 0, 1, 2, or 3 micro M for 5 days, respectively. Each peptide was added at every 24 hours at the appropriate concentrations and the viability of cells was evaluated by MTT assay every day. Absorbance at 570 nm wavelength was measured with a Microplate Reader 550 (Bio-Rad). These experiments were performed in triplicate.
A general note: Tetrazolium dyes change colour on reduction, which living cells bring about.

A further test concerns DLG1. As to the kind of experiment: Quantitative RT-PCR of downstream gene DLG1 in UM-UC-3 cells. In kind it is cell-based, human. As to conditions: bladder cancer cells after peptide treatment. Here is the method:
UM-UC-3 cells were transfected with siRNA against DEPDC1 (si-DEPDC1), ZNF224 (si-ZNF224-2) or EGFP (control siRNA). The target sequences of the synthetic oligo-duplex for siRNA against DEPDC1 (Sigma Aldrich) were as follows: si-DEPDC1,5′-CCAAAGUUCCGUAGUCUAA-3′(SEQ ID NO: 75), ZNF224 (si-ZNF224-2) or EGFP as described in “RNA interference assay” section.
Total RNAs were extracted from each sample at 12 hours and 24 hours after the transfection, labeled with Cy5 (for si-DEPDC1- and si-ZNF224-2-transfected cells) or Cy3 (for si-EGFP-transfected cells), and subjected to cohybridization onto cDNA microarrayslides containing 36468 cDNA or ESTs as described previously (Takata R, et al., Clin Cancer Res 2005 11:2625-36). After normalization of the data, it was excluded genes from further analysis when Cy5 and Cy3 dyes yielded signals intensities lower than the cut-off value. For other genes, the Cy5/Cy3 ratio was calculated using the raw data of each samples. […] Validation of candidate downstream genes of both DEPDC1 and ZNF224 was carried out with quantitative RT-PCR analysis using the SYBR green dye (Rhoche) and the same amplified RNAs from UM-UC-3 cells used for cDNA microarray experiments, with each gene-specific primer as follows;
All experiments were performed in duplicate. The calculated quantity of the target gene for each sample was then divided by the average calculated quantity of beta 2-microglobulin (beta 2-MG) corresponding to each sample to give a relative expression of the target gene for each sample

Another test concerns NF-kappaB (p65). As to the kind of experiment: Immunocytochemical staining of nuclear NF-kappaB (p65) in UM-UC-3 cells. The test is classed as cell-based, human. As to conditions: UM-UC-3 cells treated with peptide for 12 hours. Here is the method:
For detection of NF-kappaB expression in the nucleus after treatment with dominant-negative peptide (see “Dominant-negative peptide section”), UM-UC-3 cells (1×10^5) were seeded and then treated with each peptide for 12 hours. Subsequently, immunocytochemical staining was performed using anti-NF-kappaB (p65) monoclonal antibody (diluted at 1:200) (Santa Cruz, Calif., USA). Fluorescent images and nuclear intensity of NF-kappaB (p65) protein were obtained under a TCS SP2 AOBS microscope (Leica, Tokyo, Japan). For the image analysis, the nuclear signal intensities of NF-kappaB (p65) were measured by observing nuclei of 50 cells treated with the 11R-DEP611-628 peptide or scramble peptide (see “Dominant-negative peptide section”). Assays were performed in triplicate independently.

In the next test the target is T1, DEPDC1-ZNF224 complex (Homo sapiens, UniProt Q9NZL3, H562R/M118V).
T1 construct: expressed in transfected cells; host or cells: COS7 cells, transiently co-transfected (pCAGGS-type vectors)
T1 sequence (Q9NZL3 whole entry M118V/H562R, one chain of several): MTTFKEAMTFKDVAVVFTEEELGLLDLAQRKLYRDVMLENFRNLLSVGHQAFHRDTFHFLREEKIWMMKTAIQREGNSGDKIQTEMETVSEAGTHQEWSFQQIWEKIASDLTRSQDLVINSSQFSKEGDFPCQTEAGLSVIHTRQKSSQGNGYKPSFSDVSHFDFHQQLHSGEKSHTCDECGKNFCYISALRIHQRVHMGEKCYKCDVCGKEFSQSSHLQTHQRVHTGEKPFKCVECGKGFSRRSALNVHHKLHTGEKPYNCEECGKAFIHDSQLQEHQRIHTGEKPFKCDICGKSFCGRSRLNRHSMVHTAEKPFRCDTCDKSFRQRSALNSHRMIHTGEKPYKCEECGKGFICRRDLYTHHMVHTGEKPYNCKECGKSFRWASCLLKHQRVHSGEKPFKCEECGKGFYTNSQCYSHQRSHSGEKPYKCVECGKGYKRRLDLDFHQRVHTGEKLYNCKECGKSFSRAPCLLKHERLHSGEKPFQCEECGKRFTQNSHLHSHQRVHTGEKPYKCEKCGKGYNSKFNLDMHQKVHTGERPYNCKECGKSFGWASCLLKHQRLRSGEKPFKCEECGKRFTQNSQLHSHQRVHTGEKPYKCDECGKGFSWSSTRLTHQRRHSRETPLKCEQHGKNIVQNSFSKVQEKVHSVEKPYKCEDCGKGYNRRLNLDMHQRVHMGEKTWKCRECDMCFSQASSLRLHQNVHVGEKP
Kind of test: Immunoprecipitation of exogenous DEPDC1-HA and ZNF224-FLAG complex in peptide-treated COS7 cells. In kind it is cell-based. Here is the method: To confirm the interaction between DEPDC1 and ZNF224 in bladder cancer cells and identify the ZNF224-binding region in DEPDC1, the immunoprecipitation experiment was carried out as follows. First, it was confirmed interaction between endogenous DEPDC1 and exogenous ZNF224 by immunoprecipitation experiments using anti-DEPDC1 polyclonal antibody for immunoprecipitation and anti-FLAGM2 antibody (Amersham) for immunoblotting. To further determine the ZNF224-binding region in DEPDC1, it was cloned six partial constructs of DEPDC1 (DEPDC11-147, DEPDC1141-300, DEPDC1177-597, DEPDC1300-669, DEPDC1587-740 and DEPDC1654-811) into appropriate sites of COOH-terminal HA-tagged pCAGGS vector. The nucleotide sequence of each clones were determined with an ABI Prism 3700 DNA sequencer (Applied Biosystems, Foster City, Calif.), using each primer. Cell extracts from Cos7 cell line, transfected with each of plasmids expressing one of these six partial segments of DEPDC1, were precleared by incubation at 4 degrees C. for 1 hour with 100 micro 1 of protein G-agarose beads in final volumes of 2 mL of immunoprecipitation buffer (0.5% NP40, 50 mmol/L Tris-HCl, 150 mmol/L NaCl) in the presence of proteinase inhibitor. After centrifugation at 1,000 rpm for 5 minutes at 4 degrees C., the supernatants were incubated at 4 degrees C. with anti-HA rat for 1 hours. After the beads were collected from each sample by centrifugation at 5,000 rpm for 2 minutes and washed six times with 1 mL of immunoprecipitation buffer, the washed beads were re-suspended in 50 uL of Laemmli sample buffer and boiled for 3 minutes before the proteins were separated on 10% SDS-PAGE gels. Immunoblot was done using anti-HA rat antibody and anti-FLAGM2 monoclonal antibody, respectively (Sigma-Aldrich Co., St. Louis, Mo.).
To examine the effect of these polyarginine (11R)-linked peptides on inhibition of the DEPDC1-ZNF224 complex formation, they were co-transfected with DEPDC1 and ZNF224 constructs into COS7 cells. […] Immunoprecipitation were performed according to methods as described in “Identification of the ZNF224-binding regions in DEPDC1 protein” section.

As for “RRRRRRRRRRR-GGG-LRMSRLSPNMIMQRPKRL (RRRRRRRRRRRGGGLRMSRLSPNMIMQRPKRL; An artificially synthesised dominant negative peptide) [scramble611-628]”, the “cell viability measured by MTT assay” value with UM-UC-3 cells (UM-UC-3 cells, peptide 1, 2 or 3 micro M added every 24 hours for 5 days) is on record as “no effect”. In addition, the “cell growth or cellular morphology” value with UM-UC-3 cells (cells treated with peptide, FIG. 5D) is “no alterations in cell growth or cellular morphology”. For the same substance, the “expression of DLG1 (quantitative RT-PCR)” value with DLG1 is recorded as “not”. Further, the “nuclear-staining of NF-kappa B (p65) protein” value in the test on NF-kappaB (p65) was “no effect”. Moreover, the “complex formation of DEPDC1-HA and ZNF224-FLAG (immunoprecipitation)” value in the test with DEPDC1-ZNF224 complex (four peptides at 3 micro M added 6 hours after transfection, twenty-four hours later) is “no effect”. Moreover, in the test with DEPDC1-ZNF224 complex (six peptides added 6 hours after transfection, immunoprecipitation fifteen hours later), the “complex formation between exogenously expressed DEPDC1-HA and ZNF224-Flag (immunoprecipitation)” value is “not inhibit”.
